Assay results as given in patent US20260250293A1, “ULODESINE SALT” (Laevoroc Immunology AG, priority 2021, published 2026).
Like-named read-outs stand apart in the source and are kept apart here.

How the values were obtained:
Type in all cases: physicochemical
[1] = Thermodynamic solubility study in water, SGF, FaSSIF and FeSSIF; settings: for XRPD of residual solid: after 24 hrs solubility study
Experimental: Then all the samples were vortex for 30 s to disperse homogenously and placed into a constant temperature shaking incubator at 37° C. with 200 rpm for 24 hrs. If the API dissolved, more material will be added to keep suspension state. The concentration, XRPD and pH were tested at desired time points.

[2] = Dynamic vapour sorption (DVS); settings: for DVS hygroscopicity / DVS water uptake: 25° C.
Experimental: The moisture sorption profile was generated at 25° C. using a DVS moisture balance flow system (Model Advantage 1.0) with the following conditions: sample size approximately 10 mg, drying 25° C. for 60 minutes, adsorption range 0% to 95% RH, desorption range 95% to 0% RH, and step interval 5%. The equilibrium criterion was <0.01% weight change in 5 minutes for a maximum of 120 minutes.

[3] = Aqueous formulation stability; settings: for formulation stability: in water at 0.1 mg/ml (calculated by freebase), room temperature, 14 days
Experimental: The sample condition was maintained at 21-25° C. and protected from light.
Duplicate samples were prepared by transfer 4 ml solution into an 8 mL glass bottle and all the samples were placed in dark under room temperature. At desired time points of 0, 3, 7, 10 and 14 days, the sample concentration was analysed by HPLC and the pH value was measured.

[4] = Solid state stability study; settings: for Purity(%): HPLC
Experimental: (closed) and 40° C./75% RH (open) conditions during 2 weeks. […] At 0, 1 week and 2 weeks' time points, the corresponding samples will be sampled for purity determination by HPLC to assess the chemical stability. Also, one more sample was prepared under corresponding condition for appearance and XRPD test to evaluate the physical stability.

[5] = solubility sample in FaSSIF(pH 6.5)
[6] = solubility sample in FeSSIF(pH 5)
[7] = solubility sample in SGF(pH 1.2)
[8] = listed as Ulodesine hemi-L-glutarate
[9] = 40° C./75% RH open, 2 weeks, listed as Ulodesine Hemi L-glutarate
[10] = 40° C./75% RH open, 2 weeks, listed as Ulodesine Hemi succinate
[11] = 60° C. close, 2 weeks, listed as Ulodesine Hemi succinate

pH value at 24 hrs [1, 5] | pH value at 24 hrs [1, 6] | pH value at 24 hrs [1, 7] | pH value at 24 hrs ([1]; solubility sample in water) | XRPD pre and post DVS [2] | DVS hygroscopicity [2] | DVS water uptake ([2]; at 80% RH) | DVS water uptake ([2]; at 95% RH) [% at 95% RH)] | TRS(%) (=100% − purity %) ([4]; 0 d) | Purity(%) ([4]; 0 d) | TRS Change(%) (Compared to 0 d) ([4]; 40° C./75% RH open, 1 week) | TRS(%) (=100% − purity %) ([4]; 40° C./75% RH open, 1 week) | Purity(%) ([4]; 40° C./75% RH open, 1 week) | Purity(%) ([4]; 40° C./75% RH open, 2 weeks) | TRS Change(%) (Compared to 0 d) ([4]; 60° C. close, 1 week) | TRS(%) (=100% − purity %) ([4]; 60° C. close, 1 week) | Purity(%) ([4]; 60° C. close, 1 week) | TRS Change(%) (Compared to 0 d) ([4]; 60° C. close, 2 weeks) | Purity(%) ([4]; 60° C. close, 2 weeks) | Structure (SMILES) | further results
7.72 | 7.78 | 7.75 | 7.58 | No change | Moderately hygroscopic | (2.53% at 80% RH; | 27.06 | 0.60 | 99.403 | −0.12 | 0.48 | 99.524 | 99.600 | 0.15 | 0.74 | 99.258 | 0.42% TRS | 98.984 | O=c1nc[nH]c2c(CN3C[C@H](CO)[C@@H](O)C3)c[nH]c12 [Ulodesine hemi L-glutarate] | XRPD of residual solid ([1]; FaSSIF(pH 6.5)): changed compared to initial solid form; XRPD of residual solid ([1]; FeSSIF(pH 5)): changed compared to initial solid form; XRPD of residual solid ([1]; water): changed compared to initial solid form; DVS hygroscopicity [2, 8]: moderately hygroscopic; DVS water uptake ([2]; at 80% RH, listed as Ulodesine hemi-L-glutarate): 2.53%; XRPD pre and post DVS [2, 8]: no change; change of appearance, concentration and purity of solution ([3]; in water at 0.1 mg/ml (cal. by freebase), 14 days at room temperature, dark): no significant change; formulation stability [3]: physically and chemically stable for 14 days; formulation stability ([3]; listed as ulodesine hemi L-glutarate): good formulation stability; degradation (related substance increase) ([4]; 40° C./75% RH condition, during 2 weeks): no related substance increased; TRS Change(%) (Compared to 0 d) [4, 9]: −0.20%; TRS(%) (=100% − purity %) [4, 9]: 0.40%; TRS Change(%) (Compared to 0 d) ([4]; 60° C. close, 2 weeks, listed as Ulodesine Hemi L-glutarate): 0.42%; appearance and XRPD (polymorph) change ([4]; during 2 weeks under 60° C. and 40° C./75% RH conditions): no appearance and polymorph change; chemical stability based on the purity result ([4]; under 40° C./75% RH condition): more chemically stable than Ulodesine Hemi succinate
6.40 | 6.09 | 5.60 | 6.56 | No change | Moderately hygroscopic | (3.68% at 80% RH; | 15.80 | – | – | – | – | – | – | – | – | – | – | – | O=c1nc[nH]c2c(CN3C[C@H](CO)[C@@H](O)C3)c[nH]c12 [Ulodesine hemi adipinate] | –
6.16 | 5.75 | 5.32 | 6.34 | No change | Moderately hygroscopic | (6.97% at 80% RH; | 11.86 | 0.06 | 99.942 | 0.33 | 0.39 | 99.613 | 99.782 | 0.13 | 0.18 | 99.816 | 0.34% TRS increased at | 99.601 | O=c1nc[nH]c2c(CN3C[C@H](CO)[C@@H](O)C3)c[nH]c12 [Ulodesine hemi succinate, reference compound] | TRS Change(%) (Compared to 0 d) ([4]; 40° C./75% RH open, 2 weeks): 0.16% TRS increased at; TRS Change(%) (Compared to 0 d) [4, 10]: 0.16%; TRS(%) (=100% − purity %) [4, 10]: 0.22%; TRS Change(%) (Compared to 0 d) [4, 11]: 0.34%; TRS(%) (=100% − purity %) [4, 11]: 0.40%
